What was measured:
[1] = biological target: T1, human Elk1 (HsElk1, Kv12.1, KCNH8) (Homo sapiens, UniProt Q96L42); experiment: inside-out patch clamp, activation time constant; type: biochemical; conditions: -20 mV, intracellular application, excised patch, pH 7.2
T1 sequence (Q96L42 1-1107): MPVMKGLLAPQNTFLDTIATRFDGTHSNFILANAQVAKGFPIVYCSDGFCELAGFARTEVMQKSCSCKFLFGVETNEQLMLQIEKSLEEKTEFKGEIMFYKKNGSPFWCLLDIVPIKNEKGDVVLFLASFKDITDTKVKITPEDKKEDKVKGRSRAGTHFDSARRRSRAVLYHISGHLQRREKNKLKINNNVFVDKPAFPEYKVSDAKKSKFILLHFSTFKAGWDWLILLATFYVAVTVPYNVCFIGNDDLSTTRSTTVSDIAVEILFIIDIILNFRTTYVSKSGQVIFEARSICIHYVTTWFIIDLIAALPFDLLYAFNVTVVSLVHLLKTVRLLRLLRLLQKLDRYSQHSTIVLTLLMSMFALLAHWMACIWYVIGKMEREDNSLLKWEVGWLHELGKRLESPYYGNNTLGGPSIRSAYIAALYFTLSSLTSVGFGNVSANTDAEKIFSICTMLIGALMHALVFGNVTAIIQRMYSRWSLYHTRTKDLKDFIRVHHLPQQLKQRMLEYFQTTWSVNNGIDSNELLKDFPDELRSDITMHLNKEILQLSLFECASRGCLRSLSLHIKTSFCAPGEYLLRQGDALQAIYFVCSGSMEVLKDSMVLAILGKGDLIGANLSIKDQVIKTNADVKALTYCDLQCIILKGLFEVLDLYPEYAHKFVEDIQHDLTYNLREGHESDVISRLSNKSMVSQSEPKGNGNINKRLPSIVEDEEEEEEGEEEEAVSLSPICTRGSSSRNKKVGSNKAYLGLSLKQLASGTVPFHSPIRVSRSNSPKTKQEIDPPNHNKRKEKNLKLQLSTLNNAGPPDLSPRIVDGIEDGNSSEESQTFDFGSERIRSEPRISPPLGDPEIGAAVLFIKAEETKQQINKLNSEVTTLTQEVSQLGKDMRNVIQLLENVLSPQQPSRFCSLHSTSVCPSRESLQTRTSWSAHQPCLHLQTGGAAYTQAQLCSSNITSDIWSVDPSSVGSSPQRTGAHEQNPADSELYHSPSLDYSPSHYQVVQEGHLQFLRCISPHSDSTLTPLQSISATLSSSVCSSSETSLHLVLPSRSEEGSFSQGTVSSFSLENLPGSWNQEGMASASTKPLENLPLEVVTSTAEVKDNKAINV

[2] = biological target: T1, human Elk1 (HsElk1, Kv12.1, KCNH8); experiment: inside-out patch clamp, Hill fit of activation time constant; type: cell-based

EC50 [2] [µM] | SMILES | fold change of τact at 10 μM [1]
 | CCCCCCCC(=O)OC[C@H](COP(=O)(O)O[C@H]1[C@H](O)[C@@H](OP(=O)(O)O)[C@H](OP(=O)(O)O)[C@@H](OP(=O)(O)O)[C@H]1O)OC(=O)CCCCCCC [diC8-PIP3] | PIP3 slowed activation significantly more than PIP2
12.7 ± 2.2 | CCCCCCCC(=O)OC[C@H](COP(=O)(O)O[C@@H]1[C@H](O)[C@H](O)[C@@H](OP(=O)(O)O)[C@H](OP(=O)(O)O)[C@H]1O)OC(=O)CCCCCCC [diC8-PIP2] | 

From paper PMC4621751 (The Journal of General Physiology, 2015)
